Target: T1, Human complement C1s enzyme (Homo sapiens, UniProt P09871)
T1 sequence (P09871 438-688 limits assumed): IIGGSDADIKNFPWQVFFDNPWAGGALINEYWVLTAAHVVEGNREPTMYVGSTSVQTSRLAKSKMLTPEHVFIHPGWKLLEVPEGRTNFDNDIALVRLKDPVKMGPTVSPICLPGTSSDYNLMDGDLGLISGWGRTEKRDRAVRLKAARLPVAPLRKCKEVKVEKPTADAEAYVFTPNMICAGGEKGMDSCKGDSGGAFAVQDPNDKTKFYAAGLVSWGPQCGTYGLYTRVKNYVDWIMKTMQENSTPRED
T1 sequence (P09871 16-437 partner limits assumed): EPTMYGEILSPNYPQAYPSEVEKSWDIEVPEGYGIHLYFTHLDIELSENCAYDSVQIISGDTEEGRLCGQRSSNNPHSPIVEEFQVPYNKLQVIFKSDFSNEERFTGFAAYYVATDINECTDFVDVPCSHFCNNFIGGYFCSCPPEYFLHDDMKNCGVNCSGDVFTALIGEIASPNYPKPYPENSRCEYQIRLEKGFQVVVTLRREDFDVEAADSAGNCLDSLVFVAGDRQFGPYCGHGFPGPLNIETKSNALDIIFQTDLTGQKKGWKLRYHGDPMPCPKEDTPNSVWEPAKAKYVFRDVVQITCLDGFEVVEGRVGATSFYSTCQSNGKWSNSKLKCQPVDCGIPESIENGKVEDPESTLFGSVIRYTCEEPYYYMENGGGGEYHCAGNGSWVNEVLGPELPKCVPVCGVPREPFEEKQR
Experiment: Human C1s enzyme assay
Format: biochemical
Details: human complement C1s enzyme 1.16 nM, substrate Z-L-Lys-SBzl 100 μM, 5 min preincubation; read-out: IC50 (Stars), C1s Inhibiting Activity
Summary of the method: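 IC50 from nonlinear regression of reaction rates versus compound concentration, with rates taken from A405 recorded at 30 s intervals over 30 min after adding 100 μM Z-L-Lys-SBzl plus 100 μM DTNB. Enzyme was human C1s purified from serum, 1.16 nM, given 5 min compound preincubation at room temperature, pH 7.5 Tris/1 M NaCl.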

Compound	IC50 [nM]
O=C(NCC(=O)N1C[C@H](OC(F)F)C[C@H]1C(=O)NCc1ccc2c(c1)CCN2)c1ccc2c(c1)Oc1ccccc1S2 [Compound 197, (2S,4R)-4-(difluoromethoxy)-N-(indolin-5-ylmethyl)-1-((phenoxathiine-3-carbonyl)glycyl)pyrrolidine-2-carboxamide]	> 1000
O=C(NCC(=O)N1C[C@H](OC(F)F)C[C@H]1C(=O)NCc1ccc2c(c1)NCC2)c1ccc2c(c1)Oc1ccccc1S2 [Compound 198, (2S,4R)-4-(difluoromethoxy)-N-(indolin-6-ylmethyl)-1-((phenoxathiine-3-carbonyl)glycyl)pyrrolidine-2-carboxamide]	> 1000
O=C(NCC(=O)N1C[C@H](OC(F)F)C[C@H]1C(=O)NCc1ccc2cn[nH]c2c1)c1ccc2c(c1)Oc1ccccc1S2 [Compound 199, (2S,4R)-N-((1H-indazol-6-yl)methyl)-4-(difluoromethoxy)-1-((phenoxathiine-3-carbonyl)glycyl)pyrrolidine-2-carboxamide]	> 1000
C[C@@H](NC(=O)[C@@H]1C[C@]2(C)C[C@@H]2N1C(=O)CNC(=O)c1ccc2oc3ccccc3c2c1)c1cc2cnccc2[nH]1 [Compound 200, (1S,3S,5S)-N-((R)-1-(1H-pyrrolo[3,2-c]pyridin-2-yl)ethyl)-2-((dibenzo[b,d]furan-2-carbonyl)glycyl)-5-methyl-2-azabicyclo[3.1.0]hexane-3-carboxamide]	< 100
COC[C@@]1(F)C[C@@H](C(=O)NCc2cc3cnccc3[nH]2)N(C(=O)CNC(=O)c2ccc3oc4ccccc4c3c2)C1 [Compound 201, (2S,4R)-N-((1H-pyrrolo[3,2-c]pyridin-2-yl)methyl)-1-((dibenzo[b,d]furan-2-carbonyl)glycyl)-4-fluoro-4-(methoxymethyl)pyrrolidine-2-carboxamide]	< 100
CS(=O)(=O)[C@@H]1C[C@@H](C(=O)NCc2cc3cnccc3[nH]2)N(C(=O)CNC(=O)c2ccc3oc4ccccc4c3c2)C1 [Compound 202, (2S,4R)-N-((1H-pyrrolo[3,2-c]pyridin-2-yl)methyl)-1-((dibenzo[b,d]furan-2-carbonyl)glycyl)-4-(methylsulfonyl)pyrrolidine-2-carboxamide]	< 100
C[C@@]12C[C@@H]1N(C(=O)CNC(=O)c1ccc3oc4ccccc4c3c1)[C@H](C(=O)NCc1cc3cnccc3[nH]1)C2 [Compound 203, (1S,3S,5S)-N-((1H-pyrrolo[3,2-c]pyridin-2-yl)methyl)-2-((dibenzo[b,d]furan-2-carbonyl)glycyl)-5-methyl-2-azabicyclo[3.1.0]hexane-3-carboxamide]	< 100
C[C@@H](NC(=O)C1C[C@H](COCCCCCC(=O)O)CN1C(=O)CNC(=O)c1ccc2c(c1)Oc1ccccc1S2)c1cc2cnccc2[nH]1 (stereo partly drawn) [Compound 204, 6-(((3S)-5-(((R)-1-(1H-pyrrolo[3,2-c]pyridin-2-yl)ethyl)carbamoyl)-1-((phenoxathiine-3-carbonyl)glycyl)pyrrolidin-3-yl)methoxy)hexanoic acid]	< 100
C[C@@H](NC(=O)[C@@H]1C[C@@H](OC(F)F)CN1C(=O)CNC(=O)c1ccc(Oc2ccc(F)cc2)cc1)c1cc2cnccc2s1 [Compound 205, (2S,4R)-4-(difluoromethoxy)-1-((4-(4-fluorophenoxy)benzoyl)glycyl)-N-((R)-1-(thieno[3,2-c]pyridin-2-yl)ethyl)pyrrolidine-2-carboxamide]	100 to 1000
C[C@@H](NC(=O)[C@@H]1CC2(CN1C(=O)CNC(=O)c1ccc3c(c1)Oc1ccccc1S3)OCCO2)c1cc2cnccc2s1 [Compound 206, (S)-7-((phenoxathiine-3-carbonyl)glycyl)-N-((R)-1-(thieno[3,2-c]pyridin-2-yl)ethyl)-1,4-dioxa-7-azaspiro[4.4]nonane-8-carboxamide]	< 100

Now from value to compound:

IC50 [nM]	Compound
> 1000	C[C@@H](NC(=O)[C@@H]1C[C@@H](OC(F)F)CN1C(=O)CNC(=O)c1ccc2c(c1)-c1ccccc1C2(F)F)c1cc2cnccc2s1 [Compound 207, (2S,4R)-1-((9,9-difluoro-9H-fluorene-3-carbonyl)glycyl)-4-(difluoromethoxy)-N-((R)-1-(thieno[3,2-c]pyridin-2-yl)ethyl)pyrrolidine-2-carboxamide]
< 100	C[C@@H](NC(=O)[C@@H]1C[C@@H](OC(F)F)CN1C(=O)CNC(=O)c1ccc2c(c1)Oc1ccccc1S2)c1cc2cnccc2s1 [Compound 208, (2S,4R)-4-(difluoromethoxy)-1-((phenoxathiine-3-carbonyl)glycyl)-N-((R)-1-(thieno[3,2-c]pyridin-2-yl)ethyl)pyrrolidine-2-carboxamide]
100 to 1000	C[C@@H](NC(=O)[C@@H]1C[C@@H](OC(F)F)CN1C(=O)CNC(=O)c1ccc(Oc2ccccc2)cc1)c1cc2cnccc2s1 [Compound 209, (2S,4R)-4-(difluoromethoxy)-1-((4-phenoxybenzoyl)glycyl)-N-((R)-1-(thieno[3,2-c]pyridin-2-yl)ethyl)pyrrolidine-2-carboxamide]
< 100	O=C(NCC(=O)N1C[C@H](OC(F)F)C[C@H]1C(=O)NCc1cc2c(s1)CNCC2)c1ccc2c(c1)Oc1ccccc1S2 [Compound 210, (2S,4R)-4-(difluoromethoxy)-1-((phenoxathiine-3-carbonyl)glycyl)-N-((4,5,6,7-tetrahydrothieno[2,3-c]pyridin-2-yl)methyl)pyrrolidine-2-carboxamide]
< 100	O=C(NCC(=O)N1CC2(C[C@H]1C(=O)NCc1cc3cnccc3[nH]1)OCCO2)c1ccc2[nH]c3ccccc3c2c1 [Compound 211, (S)-N-((1H-pyrrolo[3,2-c]pyridin-2-yl)methyl)-7-((9H-carbazole-3-carbonyl)glycyl)-1,4-dioxa-7-azaspiro[4.4]nonane-8-carboxamide]
< 100	O=C(NCC(=O)N1CC2(C[C@H]1C(=O)NCc1cc3cnccc3[nH]1)OCCO2)c1ccc2sc3ccccc3c2c1 [Compound 212, (S)-N-((1H-pyrrolo[3,2-c]pyridin-2-yl)methyl)-7-((dibenzo[b,d]thiophene-2-carbonyl)glycyl)-1,4-dioxa-7-azaspiro[4.4]nonane-8-carboxamide]
< 100	O=C(NCC(=O)N1CC2(C[C@H]1C(=O)NCc1cc3cnccc3[nH]1)OCCO2)c1ccc2c(c1)oc1ccccc12 [Compound 213, (S)-N-((1H-pyrrolo[3,2-c]pyridin-2-yl)methyl)-7-((dibenzo[b,d]furan-3-carbonyl)glycyl)-1,4-dioxa-7-azaspiro[4.4]nonane-8-carboxamide]
> 1000	O=C(NCC(=O)N1CC[C@H](c2ccccc2)[C@H]1C(=O)NCc1cc2cnccc2[nH]1)c1ccc2c(c1)Oc1ccccc1S2 [Compound 214, (2S,3R)-N-((1H-pyrrolo[3,2-c]pyridin-2-yl)methyl)-1-((phenoxathiine-3-carbonyl)glycyl)-3-phenylpyrrolidine-2-carboxamide]
< 100	CC(C)c1ccc(Oc2cccc(C(=O)NCC(=O)N3C[C@H](OC(F)F)C[C@H]3C(=O)NCc3cc4cnccc4[nH]3)c2)cc1 [Compound 215, (2S,4R)-N-((1H-pyrrolo[3,2-c]pyridin-2-yl)methyl)-4-(difluoromethoxy)-1-((3-(4-isopropylphenoxy)benzoyl)glycyl)pyrrolidine-2-carboxamide]

— patent US20260062443A1 (ALEXION PHARMACEUTICALS, INC., priority 2022, published 2026)
